Consider 64 compounds from US20110046170A1, “NOVEL PYRIMIDINE-PYRIDINE DERIVATIVES” (priority 2008, published 2011).

Chain of human S1P1 receptor (P21453 whole entry): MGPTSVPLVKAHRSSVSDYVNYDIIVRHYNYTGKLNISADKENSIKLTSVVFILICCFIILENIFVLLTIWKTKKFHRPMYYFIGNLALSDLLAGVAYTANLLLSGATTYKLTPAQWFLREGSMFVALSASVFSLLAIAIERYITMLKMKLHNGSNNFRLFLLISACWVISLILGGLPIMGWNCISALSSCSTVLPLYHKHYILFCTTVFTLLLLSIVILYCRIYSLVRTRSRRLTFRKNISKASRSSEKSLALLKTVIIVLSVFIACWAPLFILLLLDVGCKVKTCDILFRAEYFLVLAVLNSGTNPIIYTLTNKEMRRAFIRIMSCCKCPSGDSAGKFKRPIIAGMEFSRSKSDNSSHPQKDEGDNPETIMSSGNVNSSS

For one experiment, the target named is human S1P1 receptor (Homo sapiens, UniProt P21453). In words: GTPγS assay to determine EC50 values. To be noted: 35S-GTPγS binding, membrane preparations of CHO cells expressing recombinant human S1P1 receptor. It counts as biochemical. The protocol:
GTPγS Assay to Determine EC50 Values
GTPγS binding assays are performed in 96 well microtiter plates (Nunc, 442587) in a final volume of 200 μl, using membrane preparations of CHO cells expressing recombinant human S1P1 receptor. Assay conditions are 20 mM Hepes (Fluka, 54461), 100 mM NaCl (Fluka, 71378), 5 mM MgCl2 (Fluka, 63064), 0.1% BSA (Calbiochem, 126609), 1 μM GDP (Sigma, G-7127), 2.5% DMSO (Fluka, 41644), 50 pM ^35S-GTPγS (Amersham Biosciences, SJ1320). The pH is 7.4. Test compounds are dissolved and diluted in 100% DMSO and pre-incubated at rt for 30 min in 150 μl of the above assay buffer, in the absence of ^35S-GTPγS. After addition of 50 μl of ^35S-GTPγS, the assay is incubated for 1 h at rt. The assay is terminated by transfer of the reaction mixture to a Multiscreen plate (Millipore, MAHFC1H60) using a cell harvester from Packard Biosciences, and the plates are washed with ice-cold 10 mM Na2HPO4/NaH2PO4 (70%/30%), dried, sealed at the bottom and, after addition of 25 μl MicroScint20 (Packard Biosciences, order# 6013621), sealed on the top. Membrane-bound ^35S-GTPγS is measured with a TopCount from Packard Biosciences.
EC50 is the concentration of agonist inducing 50% of the maximal specific ^35S-GTPγS binding. Specific binding is determined by subtracting non-specific binding from maximal binding. Maximal binding is the amount of cpm bound to the Multiscreen plate in the presence of 10 μM of S1P. Non-specific binding is the amount of binding in the absence of an agonist in the assay.
(GTPγS is a poorly hydrolysed GTP analogue; its binding reports G protein activation.)
In the case of `COc1nc(C)cc(-c2nc(-c3cc(C)nc(C)c3)no2)n1` [Example 58], the EC50 (commonly the concentration needed to bring the measured effect to its halfway point) is above 10000 nM.

Consider `CCOc1nc(C)cc(-c2nc(-c3cc(C)nc(N(C)C)c3)no2)n1` [Example 70], for which the EC50 was above 10000 nM.

Take `CCCOc1nc(C)cc(-c2nc(-c3cc(C)nc(N(C)CC)c3)no2)n1` [Example 78]: the concentration for a half-maximal effect (EC50) was above 10000 nM.

Take `COc1nc(C)cc(-c2noc(-c3cc(C)nc(C)c3)n2)n1` [Example 180]: the half-maximal effective concentration (EC50) was above 10000 nM.

On to `CCc1cc(-c2nc(-c3cc(C)nc(NCC(C)C)n3)no2)cnc1N(C)C(C)C` [Example 224], for which the concentration for a half-maximal effect (EC50) is above 10000 nM.

`CCCN(C)c1nc(C)cc(-c2noc(-c3cnc(N(C)C(C)C)c(CC)c3)n2)n1` [Example 227]: the EC50 was above 10000 nM.

`CCc1cc(-c2nc(-c3cc(C)nc(N(C)CC(C)C)n3)no2)cnc1N(C)C(C)C` [Example 229]: the EC50 was above 10000 nM.

`CCCN(CC)c1nc(C)cc(-c2noc(-c3cnc(N(C)C(C)C)c(CC)c3)n2)n1` [Example 231]: the concentration for a half-maximal effect (EC50) is above 10000 nM.

`CCc1cc(-c2nc(-c3cc(C)nc(N(CC)C(C)C)n3)no2)cnc1N(C)C(C)C` [Example 232]: the concentration for a half-maximal effect (EC50) is above 10000 nM.

Consider `CCc1cc(-c2nc(-c3cc(C)nc(OCC(C)C)n3)no2)cnc1N(C)C(C)C` [Example 237], for which the concentration for a half-maximal effect (EC50) is above 10000 nM.

Take `CCCNc1nc(C)cc(-c2noc(-c3cc(C)cc(CC(C)C)n3)n2)n1` [Example 240]: the EC50 is above 10000 nM.

For `Cc1cc(CC(C)C)nc(-c2nc(-c3cc(C)nc(NC(C)C)n3)no2)c1` [Example 241], the concentration for a half-maximal effect (EC50) is above 10000 nM.

Turning to `Cc1cc(CC(C)C)nc(-c2nc(-c3cc(C)nc(NCC(C)C)n3)no2)c1` [Example 242], the EC50 is above 10000 nM.

For the compound `Cc1cc(CC(C)C)nc(-c2nc(-c3cc(C)nc(N(C)C(C)C)n3)no2)c1` [Example 246], the 50% effective concentration (EC50) was above 10000 nM.

With `Cc1cc(CC(C)C)nc(-c2nc(-c3cc(C)nc(N(C)CC(C)C)n3)no2)c1` [Example 247], the EC50 is above 10000 nM.

Turning to `CCN(CC)c1nc(C)cc(-c2noc(-c3cc(C)cc(CC(C)C)n3)n2)n1` [Example 248], the EC50 is above 10000 nM.

`CCCN(CC)c1nc(C)cc(-c2noc(-c3cc(C)cc(CC(C)C)n3)n2)n1` [Example 249]: the EC50 was above 10000 nM.

As for `CCN(c1nc(C)cc(-c2noc(-c3cc(C)cc(CC(C)C)n3)n2)n1)C(C)C` [Example 250], the EC50 was above 10000 nM.

Consider `Cc1cc(CC(C)C)nc(-c2nc(-c3cc(C)nc(OC(C)C)n3)no2)c1` [Example 254], for which the concentration giving a half-maximal response (EC50) is above 10000 nM.

As to `Cc1cc(CC(C)C)nc(-c2nc(-c3cc(C)nc(OCC(C)C)n3)no2)c1` [Example 255], the EC50 is above 10000 nM.

The same experiment, now with this note: 35S-GTPγS binding, membrane preparations of CHO cells expressing recombinant human S1P1 receptor; agonistic activity.
For `CCNc1nc(C)cc(-c2nc(-c3cc(C)nc(CC)c3)no2)n1` [Example 9], the EC50 was 21 nM.

Take `CCNc1nc(C)cc(-c2nc(-c3cc(C)nc(Cl)c3)no2)n1` [Example 12]: the EC50 turned out to be 27 nM.

For `Cc1cc(-c2noc(-c3cc(C)nc(NC(C)C)n3)n2)cc(N(C)C)n1` [Example 25], the concentration for a half-maximal effect (EC50) is 46 nM.

For the compound `Cc1cc(-c2noc(-c3cc(C)nc(NCC(C)C)n3)n2)cc(C)n1` [Example 27], the EC50 came out at 8 nM.

As for `COc1nc(C)cc(-c2nc(-c3cc(C)nc(C(C)C)c3)no2)n1` [Example 60], the EC50 turned out to be 126 nM.

Consider `CNc1nc(C)cc(-c2noc(-c3cc(C)nc(CC(C)C)c3)n2)n1` [Example 81], for which the EC50 was 30 nM.

Regarding `COc1nc(C)cc(-c2noc(-c3cc(C)nc(CC(C)C)c3)n2)n1` [Example 94], the EC50 stood at 27 nM.

Consider `Cc1cc(-c2nnc(-c3cc(C)nc(NC(C)C)n3)o2)cc(C)n1` [Example 100], for which the concentration for a half-maximal effect (EC50) was found to be 128 nM.

As to `CCCNc1nc(C)cc(-c2nc(-c3ccnc(C)c3)no2)n1` [Example 101], the EC50 came out at 11 nM.

Regarding `Cc1cc(-c2noc(-c3cc(C)nc(N(C)C(C)C)n3)n2)cc(C)n1` [Example 109], the EC50 was 1.3 nM.

Consider `CCc1cc(-c2noc(-c3cc(C)nc(NC4CC4)n3)n2)cc(C)n1` [Example 116], for which the EC50 was determined as 2.1 nM.

As for `CCc1cc(-c2noc(-c3cc(C)nc(N4CCCC4)n3)n2)cc(C)n1` [Example 118], the concentration for a half-maximal effect (EC50) was determined as 186 nM.

In the case of `CCCNc1nc(C)cc(-c2nc(-c3cc(C)nc(OC)c3)no2)n1` [Example 119], the concentration for a half-maximal effect (EC50) came out at 30 nM.

As for `CCN(c1nc(C)cc(-c2nc(-c3cc(C)nc(OC)c3)no2)n1)C(C)C` [Example 126], the EC50 was 39 nM.

As for `Cc1cc(-c2noc(-c3cc(C)nc(OC(C)C)n3)n2)cc(C)n1` [Example 132], the EC50 turned out to be 44 nM.

`CCc1cc(-c2noc(-c3cc(C)nc(OCC(C)C)n3)n2)cc(C)n1` [Example 135]: the EC50 came to 142 nM.

As to `Cc1cc(-c2noc(-c3cc(CC(C)C)nc(NC(C)C)n3)n2)cc(C)n1` [Example 142], the EC50 turned out to be 26 nM.

As to `CCc1cc(-c2nc(-c3cc(C)nc(C)c3)no2)nc(NC(C)C)n1` [Example 147], the EC50 is 0.7 nM.

`CCc1cc(-c2nc(-c3cc(C)nc(C)c3)no2)nc(N(C)C)n1` [Example 149]: the concentration giving a half-maximal response (EC50) came to 63 nM.

On to `Cc1cc(-c2nc(-c3ccc(C)c(C)n3)no2)nc(NC(C)C)n1` [Example 155], for which the concentration giving a half-maximal response (EC50) worked out at 20 nM.

As to `CCc1cnc(-c2noc(-c3cc(C)nc(NC(C)C)n3)n2)cc1C` [Example 159], the half-maximal effective concentration (EC50) stood at 53 nM.

For the compound `CCN(c1nc(C)cc(-c2noc(-c3ccnc(C)c3)n2)n1)C(C)C` [Example 166], the 50% effective concentration (EC50) was found to be 2150 nM.

In the case of `CCCN(C)c1nc(C)cc(-c2noc(-c3cc(C)nc(C)c3)n2)n1` [Example 174], the EC50 came to 34 nM.

For the compound `CCN(CC)c1nc(C)cc(-c2noc(-c3cc(C)nc(C)c3)n2)n1` [Example 177], the EC50 was 11 nM.

With `CCCN(CC)c1nc(C)cc(-c2noc(-c3cc(C)nc(C)c3)n2)n1` [Example 178], the concentration giving a half-maximal response (EC50) came to 11 nM.

Regarding `CCCOc1nc(C)cc(-c2noc(-c3cc(C)nc(C)c3)n2)n1` [Example 182], the concentration giving a half-maximal response (EC50) is 395 nM.

As for `CCCNc1nc(C)cc(-c2noc(-c3cc(C)nc(Cl)c3)n2)n1` [Example 185], the EC50 was 22 nM.

`Cc1cc(-c2nc(-c3cc(C)nc(NCC(C)C)n3)no2)cc(Cl)n1` [Example 187]: the EC50 was determined as 31 nM.

Regarding `CNc1nc(C)cc(-c2noc(-c3cc(C)nc(N(C)C)c3)n2)n1` [Example 188], the EC50 came to 560 nM.

On to `Cc1cc(-c2nc(-c3cc(C)nc(N(C)C(C)C)n3)no2)cc(N(C)C)n1` [Example 196], for which the EC50 came to 241 nM.

As for `CCN(c1nc(C)cc(-c2noc(-c3cc(C)nc(N(C)C)c3)n2)n1)C(C)C` [Example 200], the EC50 was 94 nM.

Turning to `COc1nc(C)cc(-c2noc(-c3cc(C)nc(N(C)C)c3)n2)n1` [Example 201], the EC50 amounted to 1140 nM.

Regarding `Cc1cc(-c2nc(-c3cc(C)nc(OCC(C)C)n3)no2)cc(N(C)C)n1` [Example 205], the EC50 came out at 3040 nM.

As for `CCCNc1nc(C)cc(-c2noc(-c3cnc(CC(C)C)c(C)c3)n2)n1` [Example 206], the concentration giving a half-maximal response (EC50) is 5780 nM.

Take `CCCN(CC)c1nc(C)cc(-c2noc(-c3cnc(CC(C)C)c(C)c3)n2)n1` [Example 211]: the EC50 is 795 nM.

As to `Cc1cc(-c2noc(-c3cnc(OC(C)C)c(C)c3)n2)nc(NC(C)C)n1` [Example 214], the concentration for a half-maximal effect (EC50) came out at 720 nM.

On to `CCc1cc(-c2nc(-c3cc(C)nc(NC)n3)no2)cnc1N(C)C(C)C` [Example 220], for which the EC50 stood at 231 nM.

Turning to `CCc1cc(-c2nc(-c3cc(C)nc(NC(C)C)n3)no2)cnc1N(C)C(C)C` [Example 223], the half-maximal effective concentration (EC50) came to 4160 nM.

Consider `CCc1cc(-c2nc(-c3cc(C)nc(N(C)C(C)C)n3)no2)cnc1N(C)C(C)C` [Example 228], for which the EC50 came to 3220 nM.

On to `CCc1cc(-c2nc(-c3cc(C)nc(OC)n3)no2)cnc1N(C)C(C)C` [Example 233], for which the EC50 was found to be 190 nM.

In the case of `CNc1nc(C)cc(-c2noc(-c3cc(C)cc(CC(C)C)n3)n2)n1` [Example 238], the EC50 came to 402 nM.

Consider `Cc1cc(CC(C)C)nc(-c2nc(-c3cc(C)nc(N(C)C)n3)no2)c1` [Example 243], for which the concentration for a half-maximal effect (EC50) stood at 318 nM.

In the case of `COc1nc(C)cc(-c2noc(-c3cc(C)cc(CC(C)C)n3)n2)n1` [Example 251], the EC50 came out at 201 nM.

With `CCCNc1nc(C)cc(-c2nnc(-c3cc(C)nc(C)c3)s2)n1` [Example 261], the EC50 came out at 331 nM.
